The test system of this experiment is mouse L1210 leukemic cells. Description: In vitro cytotoxicity, inhibition of cell growth (cell counter). As to conditions: read-out: IC50 (concentration for which 50% inhibition of cell growth is obtained). Type of experiment: cell-based. As to the method:
The cytotoxic activity in vitro was evaluated by the determination of the IC50 (concentration for which 50% inhibition of cell growth is obtained) on mouse L1210 leukemic cells.
The IC50 is evaluated by means of a cell counter.
For the compound `CN1CCOP12=NP(N1CC1)(N1CC1)=NP(N1CC1)(N1CC1)=N2` (centres unmarked) [Compound 1, 4-methyl-7,7,9,9-tetra-1-aziridinyl-7,7,9,9-tetrahydro-1-oxa-4,6,8,10-tetraaza-5λ^5-7,9-triphosphaspiro-[4,5]-deca-5,7,9-triene], the IC50 was determined as 9 µM.
With `C1COP2(=NP(N3CC3)(N3CC3)=NP(N3CC3)(N3CC3)=N2)N1` (centres unmarked) [Compound 2, 7,7,9,9-Tetra-1-aziridinyl-7,7,9,9-tetrahydro-1-oxa-4,6,8,10-tetraaza-5λ^5,7,9-triphosphaspiro-[4,5]-deca-5,7,9-triene], the IC50 came to 8.7 µM.
With `C1CNP2(=NP(N3CC3)(N3CC3)=NP(N3CC3)(N3CC3)=N2)OC1` (centres unmarked) [Compound 3, 2,2,4,4-Tetra-1-aziridinyl-2,2,4,4-tetrahydro-7-oxa-1,3,5,11-tetraaza-2,4,6λ^5-triphosphaspiro-[5,5]-undeca-1,3,5-triene] the figure was 2.3 µM; with `C1CCC(N2CCCOP23=NP(N2CC2)(N2CC2)=NP(N2CC2)(N2CC2)=N3)CC1` (centres unmarked) [Compound 4, 11-Cyclohexyl-2,2,4,4-tetra-1-aziridinyl-2,2,4,4-tetrahydro-7-oxa-1,3,5,11-tetraaza-2,4,6λ^5-triphosphaspiro-[5,5]-undeca-1,3,5-triene], 9.9 µM.
`c1ccc(CN2CCOP23=NP(N2CC2)(N2CC2)=NP(N2CC2)(N2CC2)=N3)cc1` (centres unmarked) [Compound 5, 4-Phenylmethyl-7,7,9,9-tetra-1-aziridinyl-7,7,9,9-tetrahydro-1-oxa-4,6,8,10-tetraaza-5λ^5,7,9-triphosphaspiro-[4,5]-deca-5,7,9-triene]: the IC50 stood at 5.8 µM.
With `c1ccc(CN2CCCOP23=NP(N2CC2)(N2CC2)=NP(N2CC2)(N2CC2)=N3)cc1` (centres unmarked) [Compound 6, 11-Phenylmethyl-2,2,4,4-tetra-1-aziridinyl-2,2,4,4-tetrahydro-7-oxa-1,3,5,11-tetraaza-2,4,6λ^5-triphosphaspiro-[5,5]-undeca-1,3,5-triene] the figure was 5.8 µM; with `c1ccc(CCN2CCOP23=NP(N2CC2)(N2CC2)=NP(N2CC2)(N2CC2)=N3)cc1` (centres unmarked) [Compound 7, 4-(2-Phenylethyl)-7,7,9,9-tetra-1-aziridinyl-7,7,9,9-tetrahydro-1-oxa-4,6,8,10-tetraaza-5λ^5,7,9-triphosphaspiro-[4,5]-deca-5,7,9-triene], 7.8 µM.
With `c1ccc(CCN2CCCOP23=NP(N2CC2)(N2CC2)=NP(N2CC2)(N2CC2)=N3)cc1` (centres unmarked) [Compound 8, 11-(2-Phenylethyl)-2,2,4,4-tetra-1-aziridinyl-2,2,4,4-tetrahydro-7-oxa-1,3,5,11-tetraaza-2,4,6λ^5-triphosphaspiro-[5,5]-undeca-1,3,5-triene] the figure was 6.5 µM.

The record behind these values is patent US5182273A, “Spirocyclic N, O derivatives of cyclotriphosphazenes and their use in therapy” (Pierre Fabre Medicament, priority 1990, dated 1993).
